{
  "source": "patent US9150632B2",
  "about": "(Indiana University Research and Technology Corporation, priority 2009, dated 2015)",
  "key": {"[1]": {"target": "GLP-1 receptor (Homo sapiens, UniProt P43220)", "sequence (P43220 24-463, species assumed)": "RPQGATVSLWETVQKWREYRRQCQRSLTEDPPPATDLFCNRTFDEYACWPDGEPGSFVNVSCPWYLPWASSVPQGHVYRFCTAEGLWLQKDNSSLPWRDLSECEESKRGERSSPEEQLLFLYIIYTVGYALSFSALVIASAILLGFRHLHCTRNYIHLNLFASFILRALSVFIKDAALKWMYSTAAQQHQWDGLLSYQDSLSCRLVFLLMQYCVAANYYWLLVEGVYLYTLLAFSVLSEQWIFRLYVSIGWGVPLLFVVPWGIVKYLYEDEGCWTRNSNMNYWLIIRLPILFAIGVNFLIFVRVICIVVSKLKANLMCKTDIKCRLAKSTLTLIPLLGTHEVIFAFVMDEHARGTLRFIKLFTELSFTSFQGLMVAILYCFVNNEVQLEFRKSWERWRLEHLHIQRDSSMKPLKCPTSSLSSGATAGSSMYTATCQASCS", "details": "for % Activity of GLP-1: Table 21, relative to the native peptide; for % Relative activity at the Receptor for GLP-1: relative to the native hormone; for GLP-1 Receptor % relative activity: activity relative to the native hormone at the indicated receptor; for EC50: read-out: GLP-1 Receptor EC50, cAMP induction, in vitro, as in Example 14", "method": "(§1) Peptide absorbance readings were obtained from UV Absorbance measurements at 280 nm on a Genesys 6 Spectrophotometer (Thermo Electron Corporation). Beer's Law was used to calculate solution concentrations based on the number of tryptophan and tyrosine residues in each analog. At the end of the incubation, 100 μL LucLite luminescence substrate reagent was added to each well, the plate sealed and shaken, and placed into a Wallac Trilux luminescence counter for cAMP detection.\n(§2) HEK293 cells were co-transfected with the GcgR or GLP-1R cDNAs and a luciferase reporter gene-linked to a cAMP response element (CRE). […] The plate was incubated for 10 min in the dark and light output was quantified on a MicroBeta1450 liquid scintillation counter (Perkin-Elmer, Wellesley, Mass.)."}, "[2]": {"target": "T1, glucagon receptor (Homo sapiens, UniProt P47871)", "T1 construct": "expressed in transfected cells; host or cells: HEK293", "T1 sequence (P47871 26-477)": "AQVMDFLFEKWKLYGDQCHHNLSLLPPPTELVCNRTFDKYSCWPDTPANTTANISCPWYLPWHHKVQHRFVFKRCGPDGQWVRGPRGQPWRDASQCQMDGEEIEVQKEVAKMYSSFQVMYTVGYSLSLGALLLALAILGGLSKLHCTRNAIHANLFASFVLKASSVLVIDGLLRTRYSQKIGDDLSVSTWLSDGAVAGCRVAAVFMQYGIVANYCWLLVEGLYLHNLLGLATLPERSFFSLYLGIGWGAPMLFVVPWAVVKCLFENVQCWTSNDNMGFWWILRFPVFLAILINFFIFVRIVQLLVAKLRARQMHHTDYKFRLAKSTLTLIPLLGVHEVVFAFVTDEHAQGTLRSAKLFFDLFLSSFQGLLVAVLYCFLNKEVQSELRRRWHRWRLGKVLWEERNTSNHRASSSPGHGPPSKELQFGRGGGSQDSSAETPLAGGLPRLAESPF", "experiment": "Functional assay-cAMP synthesis, luciferase reporter in HEK293 cells, glucagon receptor", "assay_type": "cell-based", "details": "for % Activity of Glucagon: Table 21, relative to the native peptide; for % Relative activity at the Receptor for Glucagon: relative to the native hormone", "method": "as §1, §2"}, "[3]": {"target": "T2, GIP receptor (Homo sapiens, UniProt P48546)", "T2 construct": "expressed in transfected cells; host or cells: HEK293", "T2 sequence (P48546 22-466)": "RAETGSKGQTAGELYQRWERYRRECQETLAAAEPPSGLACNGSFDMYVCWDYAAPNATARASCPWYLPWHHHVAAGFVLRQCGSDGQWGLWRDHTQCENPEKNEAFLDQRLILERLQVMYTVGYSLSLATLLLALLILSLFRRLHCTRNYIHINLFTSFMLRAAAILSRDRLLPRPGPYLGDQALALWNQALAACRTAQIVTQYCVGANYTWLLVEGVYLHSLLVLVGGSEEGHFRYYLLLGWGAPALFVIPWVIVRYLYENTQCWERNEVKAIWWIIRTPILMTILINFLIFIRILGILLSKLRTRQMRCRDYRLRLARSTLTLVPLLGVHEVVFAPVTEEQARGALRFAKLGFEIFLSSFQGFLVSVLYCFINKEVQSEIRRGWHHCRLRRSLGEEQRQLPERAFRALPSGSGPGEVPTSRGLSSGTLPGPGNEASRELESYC", "experiment": "Functional assay-cAMP synthesis, luciferase reporter in HEK293 cells, GIP receptor", "assay_type": "cell-based", "details": "for % Relative activity at the Receptor for GIP: relative to the native hormone; for GIP Receptor % relative activity: activity relative to the native hormone at the indicated receptor; for EC50: read-out: GIP Receptor EC50, cAMP induction, in vitro, as in Example 14"}},
  "note": "Where two headings read alike, the source gives them in different places. Non-standard residues stand in square brackets, D forms with d. Residues, ends and D or L forms follow the SMILES beside them. No end group written: not given here. *: point of attachment. Palmitoyl = CCCCCCCCCCCCCCCC(=O)*; Myristoyl = CCCCCCCCCCCCCC(=O)*; Aib = CC(C)(N)C(=O)O",
  "data": [
    {"compound": "CCCCCCCCCCCCCC(=O)NCCCC[C@H](NC(=O)[C@H](CC(=O)O)NC(=O)[C@H](CO)NC(=O)[C@@H](NC(=O)[C@H](Cc1ccccc1)NC(=O)[C@@H](NC(=O)CNC(=O)[C@H](CCC(N)=O)NC(=O)[C@@H](CO)NC(=O)[C@@H](N)Cc1c[nH]cn1)[C@@H](C)O)[C@@H](C)O)C(=O)N[C@@H](CO)C(=O)N[C@@H](CCCCN)C(=O)N[C@@H](Cc1ccc(O)cc1)C(=O)N[C@@H](CC(C)C)C(=O)N[C@@H](CC(=O)O)C(=O)N[C@@H](CCC(=O)O)C(=O)N[C@@H](CCCNC(=N)N)C(=O)N[C@@H](CCCNC(=N)N)C(=O)N[C@@H](C)C(=O)N[C@@H](CCCCN)C(=O)N[C@@H](CC(=O)O)C(=O)N[C@@H](Cc1ccccc1)C(=O)N[C@H](C(=O)N[C@@H](CCC(N)=O)C(=O)N[C@@H](Cc1c[nH]c2ccccc12)C(=O)N[C@@H](CC(C)C)C(=O)N[C@@H](CCSC)C(=O)N[C@@H](CC(N)=O)C(=O)N[C@H](C(N)=O)[C@@H](C)O)C(C)C", "note": "[dS2, E16/K20, K10(C14) Gluc Amide, HXQGTFTSDKSKYLDERRAKDFVQWLMNT-amide]", "values": [
      {"measurement": "% Activity of GLP-1", "setting": "[1]", "result": 6.3, "unit": "%"},
      {"measurement": "% Activity of Glucagon", "setting": "[2]", "result": 21.9, "unit": "%"}
    ]},
    {"compound": "CCCCCCCCCCCCCCCC(=O)NCCCC[C@H](NC(=O)[C@H](CC(=O)O)NC(=O)[C@H](CO)NC(=O)[C@@H](NC(=O)[C@H](Cc1ccccc1)NC(=O)[C@@H](NC(=O)CNC(=O)[C@H](CCC(N)=O)NC(=O)[C@@H](CO)NC(=O)[C@@H](N)Cc1c[nH]cn1)[C@@H](C)O)[C@@H](C)O)C(=O)N[C@@H](CO)C(=O)N[C@@H](CCCCN)C(=O)N[C@@H](Cc1ccc(O)cc1)C(=O)N[C@@H](CC(C)C)C(=O)N[C@@H](CC(=O)O)C(=O)N[C@@H](CCC(=O)O)C(=O)N[C@@H](CCCNC(=N)N)C(=O)N[C@@H](CCCNC(=N)N)C(=O)N[C@@H](C)C(=O)N[C@@H](CCCCN)C(=O)N[C@@H](CC(=O)O)C(=O)N[C@@H](Cc1ccccc1)C(=O)N[C@H](C(=O)N[C@@H](CCC(N)=O)C(=O)N[C@@H](Cc1c[nH]c2ccccc12)C(=O)N[C@@H](CC(C)C)C(=O)N[C@@H](CCSC)C(=O)N[C@@H](CC(N)=O)C(=O)N[C@H](C(N)=O)[C@@H](C)O)C(C)C", "note": "[dS2, E16/K20, K10(C16) Gluc Amide, HXQGTFTSDKSKYLDERRAKDFVQWLMNT-amide]", "values": [
      {"measurement": "% Activity of GLP-1", "setting": "[1]", "result": 19.5, "unit": "%"},
      {"measurement": "% Activity of Glucagon", "setting": "[2]", "result": 44.7, "unit": "%"}
    ]},
    {"compound": "CCCCCCCCCCCCCCCCCC(=O)NCCCC[C@H](NC(=O)[C@H](CC(=O)O)NC(=O)[C@H](CO)NC(=O)[C@@H](NC(=O)[C@H](Cc1ccccc1)NC(=O)[C@@H](NC(=O)CNC(=O)[C@H](CCC(N)=O)NC(=O)[C@@H](CO)NC(=O)[C@@H](N)Cc1c[nH]cn1)[C@@H](C)O)[C@@H](C)O)C(=O)N[C@@H](CO)C(=O)N[C@@H](CCCCN)C(=O)N[C@@H](Cc1ccc(O)cc1)C(=O)N[C@@H](CC(C)C)C(=O)N[C@@H](CC(=O)O)C(=O)N[C@@H](CCC(=O)O)C(=O)N[C@@H](CCCNC(=N)N)C(=O)N[C@@H](CCCNC(=N)N)C(=O)N[C@@H](C)C(=O)N[C@@H](CCCCN)C(=O)N[C@@H](CC(=O)O)C(=O)N[C@@H](Cc1ccccc1)C(=O)N[C@H](C(=O)N[C@@H](CCC(N)=O)C(=O)N[C@@H](Cc1c[nH]c2ccccc12)C(=O)N[C@@H](CC(C)C)C(=O)N[C@@H](CCSC)C(=O)N[C@@H](CC(N)=O)C(=O)N[C@H](C(N)=O)[C@@H](C)O)C(C)C", "note": "[dS2, E16/K20, K10(C18) Gluc Amide]", "values": [
      {"measurement": "% Activity of GLP-1", "setting": "[1]", "result": 60, "unit": "%"},
      {"measurement": "% Activity of Glucagon", "setting": "[2]", "result": 196, "unit": "%"}
    ]},
    {"compound": "CCCCCCCCCCCCCC(=O)NCCCC[C@H](NC(=O)[C@H](CO)NC(=O)[C@@H]1CCCN1C(=O)[C@@H]1CCCN1C(=O)[C@@H]1CCCN1C(=O)[C@H](C)NC(=O)CNC(=O)[C@H](CO)NC(=O)[C@H](CO)NC(=O)[C@@H]1CCCN1C(=O)CNC(=O)CNC(=O)[C@H](CC(N)=O)NC(=O)[C@H](CCSC)NC(=O)[C@H](CC(C)C)NC(=O)[C@H](Cc1c[nH]c2ccccc12)NC(=O)[C@H](CS)NC(=O)[C@@H](NC(=O)[C@H](Cc1ccccc1)NC(=O)[C@H](CCC(=O)O)NC(=O)[C@H](CCCCN)NC(=O)[C@H](C)NC(=O)[C@H](C)NC(=O)[C@H](CCC(N)=O)NC(=O)C(C)(C)NC(=O)[C@H](CC(=O)O)NC(=O)[C@H](CC(C)C)NC(=O)[C@H](Cc1ccc(O)cc1)NC(=O)[C@H](CCCCN)NC(=O)[C@H](CO)NC(=O)[C@H](Cc1ccc(O)cc1)NC(=O)[C@H](CC(=O)O)NC(=O)[C@H](CO)NC(=O)[C@@H](NC(=O)[C@H](Cc1ccccc1)NC(=O)[C@@H](NC(=O)CNC(=O)[C@H](CCC(N)=O)NC(=O)C(C)(C)NC(=O)[C@@H](N)Cc1c[nH]cn1)[C@@H](C)O)[C@@H](C)O)[C@@H](C)CC)C(N)=O", "note": "[mt-347] (H-H[Aib]QGTFTSDYSKYLD[Aib]QAAKEFICWLMNGGPSSGAPPPSK(Myristoyl)-NH2; N-terminus assumed)", "values": [
      {"measurement": "% Relative activity at the Receptor for GLP-1", "setting": "[1]; Table 35", "result": 67, "unit": "%"},
      {"measurement": "GLP-1 Receptor % relative activity", "setting": "[1]", "result": 67.07, "unit": "%"},
      {"measurement": "% Relative activity at the Receptor for Glucagon", "setting": "[2]; Table 35", "result": 111, "unit": "%"},
      {"measurement": "Glucagon Receptor % relative activity", "setting": "[2]; activity relative to the native hormone at the indicated receptor", "result": 111.36, "unit": "%"},
      {"measurement": "% Relative activity at the Receptor for GIP", "setting": "[3]; Table 35", "result": 0.7, "unit": "%"},
      {"measurement": "GIP Receptor % relative activity", "setting": "[3]", "result": 0.70, "unit": "%"}
    ]},
    {"compound": "CCCCCCCCCCCCCCCC(=O)NCCCC[C@H](NC(=O)[C@H](CO)NC(=O)[C@@H]1CCCN1C(=O)[C@@H]1CCCN1C(=O)[C@@H]1CCCN1C(=O)[C@H](C)NC(=O)CNC(=O)[C@H](CO)NC(=O)[C@H](CO)NC(=O)[C@@H]1CCCN1C(=O)CNC(=O)CNC(=O)[C@H](C)NC(=O)[C@H](CC(C)C)NC(=O)[C@H](CC(C)C)NC(=O)[C@H](Cc1c[nH]c2ccccc12)NC(=O)[C@H](CC(N)=O)NC(=O)[C@@H](NC(=O)[C@H](Cc1ccccc1)NC(=O)[C@H](CCC(=O)O)NC(=O)C(C)(C)NC(=O)[C@H](C)NC(=O)[C@H](C)NC(=O)[C@H](CCC(N)=O)NC(=O)[C@H](CCCCN)NC(=O)[C@H](CC(=O)O)NC(=O)[C@H](CC(C)C)NC(=O)[C@H](Cc1ccc(O)cc1)NC(=O)[C@@H](NC(=O)[C@H](CO)NC(=O)[C@H](Cc1ccc(O)cc1)NC(=O)[C@H](CC(=O)O)NC(=O)[C@H](CO)NC(=O)[C@@H](NC(=O)[C@H](Cc1ccccc1)NC(=O)[C@@H](NC(=O)CNC(=O)[C@H](CCC(N)=O)NC(=O)C(C)(C)NC(=O)[C@@H](N)Cc1ccc(O)cc1)[C@@H](C)O)[C@@H](C)CC)[C@@H](C)CC)C(C)C)C(N)=O", "note": "[mt-358] (H-Y[Aib]QGTFISDYSIYLDKQAA[Aib]EFVNWLLAGGPSSGAPPPSK(Palmitoyl)-NH2)", "values": [
      {"measurement": "% Relative activity at the Receptor for GLP-1", "setting": "[1]; Table 36", "result": 11.89, "unit": "%"},
      {"measurement": "% Relative activity at the Receptor for Glucagon", "setting": "[2]; Table 36", "result": 710.29, "unit": "%"},
      {"measurement": "% Relative activity at the Receptor for GIP", "setting": "[3]; Table 36", "result": 313.61, "unit": "%"}
    ]},
    {"compound": "H-HSQGTFTSDYSKYLDSRRAQDFVQWLVKGGPSSGAPPPS-NH2 [VKGG^30 PSSGAPPPS (SEQ ID NO: 524)]", "values": [
      {"measurement": "GLP-1 Receptor Relative Potency", "setting": "[1]; Table 11", "result": 12, "unit": "%"},
      {"measurement": "Glucagon Receptor Relative Potency", "setting": "[2]; Table 11", "result": 7, "unit": "%"}
    ]},
    {"compound": "mt-351: pegylated glucagon peptide of Table 34 (H[Aib]QGTFTSDYSKYLD[Aib]QAAKEFIC(PEG 40 kDa)WLMNGGPSSGAPPPSK(Myristoyl)-NH2; also: acylated with a C14 fatty acyl group, site not given here)", "values": [
      {"measurement": "GLP-1 Receptor % relative activity", "setting": "[1]", "result": 150.00, "unit": "%"},
      {"measurement": "EC50", "setting": "[1]", "result": 0.0042, "unit": "nM"},
      {"measurement": "GIP Receptor % relative activity", "setting": "[3]", "result": 0.09, "unit": "%"},
      {"measurement": "EC50", "setting": "[3]", "result": 4.12, "unit": "nM"}
    ]},
    {"compound": "mt-352: pegylated glucagon peptide of Table 34 (H[Aib]QGTFTSDYSKYLD[Aib]QAAKEFIC(PEG 40 kDa)WLMNGGPSSGAPPPSK-NH2)", "values": [
      {"measurement": "GLP-1 Receptor % relative activity", "setting": "[1]", "result": 23.08, "unit": "%"},
      {"measurement": "EC50", "setting": "[1]", "result": 0.0273, "unit": "nM"},
      {"measurement": "GIP Receptor % relative activity", "setting": "[3]", "result": 0.01, "unit": "%"},
      {"measurement": "EC50", "setting": "[3]", "result": 51.1, "unit": "nM"}
    ]}
  ]
}
